± gives the standard deviation of the averaged measurements.
Columns and labels:
Assay in all cases: surviving fraction relative to DMSO-only wells; higher = less growth inhibition
Conditions in all cases: exposure time: 5 days
PACLITAXEL = compound: CC(=O)O[C@H]1C(=O)[C@@]2(C)[C@H]([C@H](OC(=O)c3ccccc3)[C@]3(O)C[C@H](OC(=O)[C@H](O)[C@@H](NC(=O)c4ccccc4)c4ccccc4)C(C)=C1C3(C)C)[C@]1(OC(C)=O)CO[C@@H]1C[C@@H]2O [PACLITAXEL]
Procedure, shortened: (§1)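 Log-phase tumour cells were seeded at 250–500 per well in 384-well plates and, from 24 hours after seeding, exposed continuously for five days to inhibitors at 0.5, 1, 5, 10, 50, 100, 500 and 1000 nM. Surviving fraction is CellTiter-Glo luminescence normalised to the median of DMSO-only wells. Luminescence was measured after 10 minutes at room temperature, and only lines screened three times with replicate Pearson r >0.7 and median Z' >0.3 were kept.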

CARBOPLATIN = compound: O=C(O)C1(C(=O)O)CCC1.[NH2-].[NH2-].[Pt+2] [CARBOPLATIN]
Procedure, shortened: as §1

[1] = compound: CC(=O)c1c(C)c2cnc(Nc3ccc(N4CCNCC4)cn3)nc2n(C2CCCC2)c1=O
Procedure, shortened: as §1

CELECOXIB = compound: Cc1ccc(-c2cc(C(F)(F)F)nn2-c2ccc(S(N)(=O)=O)cc2)cc1 [CELECOXIB]
Procedure, shortened: as §1

OSI-906 = compound: C[C@]1(O)C[C@@H](c2nc(-c3ccc4ccc(-c5ccccc5)nc4c3)c3c(N)nccn32)C1 [OSI-906]
Procedure, shortened: as §1

## MDAMB436 BREAST
PACLITAXEL; 0.5 nM
  surviving fraction: 0.794 ± 0.033
PACLITAXEL; 1 nM
  surviving fraction: 0.684 ± 0.015
PACLITAXEL; 5 nM
  surviving fraction: 0.314 ± 0.022
PACLITAXEL; 10 nM
  surviving fraction: 0.21 ± 0.0036
PACLITAXEL; 50 nM
  surviving fraction: 0.192 ± 0.03
PACLITAXEL; 100 nM
  surviving fraction: 0.173 ± 0.016
PACLITAXEL; 500 nM
  surviving fraction: 0.171 ± 0.014
PACLITAXEL; 1000 nM
  surviving fraction: 0.198 ± 0.018
CARBOPLATIN; 0.5 nM
  surviving fraction: 0.923 ± 0.041
CARBOPLATIN; 1 nM
  surviving fraction: 0.92 ± 0.019
CARBOPLATIN; 5 nM
  surviving fraction: 0.998 ± 0.15
CARBOPLATIN; 10 nM
  surviving fraction: 0.924 ± 0.11
CARBOPLATIN; 50 nM
  surviving fraction: 1.09 ± 0.21
CARBOPLATIN; 100 nM
  surviving fraction: 0.906 ± 0.078
CARBOPLATIN; 500 nM
  surviving fraction: 1.02 ± 0.033
CARBOPLATIN; 1000 nM
  surviving fraction: 0.924 ± 0.088
[1]; 0.5 nM
  surviving fraction: 0.912 ± 0.09
[1]; 1 nM
  surviving fraction: 0.888 ± 0.047
[1]; 5 nM
  surviving fraction: 1.01 ± 0.054
[1]; 10 nM
  surviving fraction: 0.833 ± 0.032
[1]; 50 nM
  surviving fraction: 0.92 ± 0.042
[1]; 100 nM
  surviving fraction: 0.915 ± 0.07
[1]; 500 nM
  surviving fraction: 0.915 ± 0.082
[1]; 1000 nM
  surviving fraction: 0.915 ± 0.031
CELECOXIB; 0.5 nM
  surviving fraction: 0.986 ± 0.11
CELECOXIB; 1 nM
  surviving fraction: 1.09 ± 0.23
CELECOXIB; 5 nM
  surviving fraction: 1.03 ± 0.085
CELECOXIB; 10 nM
  surviving fraction: 1.04 ± 0.11
CELECOXIB; 50 nM
  surviving fraction: 1.03 ± 0.11
CELECOXIB; 100 nM
  surviving fraction: 1.03 ± 0.14
CELECOXIB; 500 nM
  surviving fraction: 0.992 ± 0.076
CELECOXIB; 1000 nM
  surviving fraction: 0.992 ± 0.11
OSI-906; 0.5 nM
  surviving fraction: 0.805 ± 0.047
OSI-906; 1 nM
  surviving fraction: 0.875 ± 0.055
OSI-906; 5 nM
  surviving fraction: 0.887 ± 0.17
OSI-906; 10 nM
  surviving fraction: 0.828 ± 0.054
OSI-906; 50 nM
  surviving fraction: 0.948 ± 0.11
OSI-906; 100 nM
  surviving fraction: 0.89 ± 0.068
OSI-906; 500 nM
  surviving fraction: 0.985 ± 0.15
OSI-906; 1000 nM
  surviving fraction: 0.855 ± 0.12

From the supplement of paper PMC6045584
